From patent publication US20190125790A1, “USE OF HYPOCHLOROUS ACID AS A TOPICAL ANTIMICROBIAL” (BIIOSMART TECHNOLOGIES LLC, priority 2016, published 2019)

Experiments:
Enterococcus faecalis = assay: Antimicrobial efficacy of HOCl skin cleanser (Table 1); format: cell-based; conditions: 0.01% HOCl; 30 seconds
Pseudomona aeruginosa = assay: as above; format: cell-based; conditions: 0.01% HOCl; 30 seconds
Enterobacter cloacae = assay: as above; format: cell-based; conditions: 0.01% HOCl; 30 seconds
Campylobacter rectus = assay: as above; format: cell-based; conditions: 0.01% HOCl; 30 seconds
HIV (non-glp) = assay: as above; format: cell-based; conditions: 0.01% HOCl; 30 seconds
Herpes simplex virus = assay: as above; format: cell-based; conditions: 0.01% HOCl; 30 seconds
Human Papillomavirus = assay: Efficacy at 30 seconds (Table 2); format: cell-based; conditions: 0.01 to 0.05% aqueous solution
Bovine Diarrhea virus = assay: Efficacy at 30 seconds (Table 2); format: cell-based; conditions: 0.01 to 0.05% aqueous solution
K. pneumoniae = assay: Efficacy at 30 seconds (Table 2); format: cell-based; conditions: 0.01 to 0.05% aqueous solution
MRSA = assay: Efficacy at 30 seconds (Table 2); format: cell-based, methicillin-resistant staphylococcus aureus; conditions: 0.01 to 0.05% aqueous solution
VRE = assay: Efficacy at 30 seconds (Table 2); format: cell-based, vancomycin-resistant enterococci; conditions: 0.01 to 0.05% aqueous solution
[1] = system: S. aureus Linezolid Resistant; assay: Efficacy at 30 seconds (Table 2); format: cell-based; conditions: 0.01 to 0.05% aqueous solution
[2] = system: Trichophyton mentagrophytes; assay: Efficacy at 30 seconds (Table 2); format: cell-based; conditions: 0.01 to 0.05% aqueous solution
[3] = system: E. coli Carbapenem Resistant; assay: Efficacy at 30 seconds (Table 2); format: cell-based; conditions: 0.01 to 0.05% aqueous solution
Candida albicans = assay: ASTM E2315 Time Kill Assay for Antimicrobial Agents; format: cell-based; conditions: 0.046% HOCl aqueous solution; 30 seconds; high organic load
Method: (§1) Table 3. below represents the efficacy of 0.046% aqueous hypochlorous acid solution in the presence of high organic load. ASTM E2315 Time Kill Assay for Antimicrobial Agents. The study was performed in ATS labs in Minnesota recommended by the U.S. FDA's Tentative Final Monograph for OTC Healthcare Antiseptic Drug. […] Additional times were evaluated: 1 minute, 5 minutes, and 10 minutes, all with and without organic soil (Using 10% whole milk and 5% Fetal Bovine Serum). The trend in the efficiency is maintained under the same proportions.

Haemophilus influenzae = assay: as above; format: cell-based; conditions: 0.046% HOCl aqueous solution; 30 seconds; high organic load
Method: as §1

P. mirabilis = assay: as above; format: cell-based; conditions: 0.046% HOCl aqueous solution; 30 seconds; high organic load
Method: as §1

S. Epidermidis = assay: as above; format: cell-based; conditions: 0.046% HOCl aqueous solution; 30 seconds; high organic load
Method: as §1

S. marcenscens = assay: as above; format: cell-based; conditions: 0.046% HOCl aqueous solution; 30 seconds; high organic load
Method: as §1

[4] = system: Vesicular Stomatitis Virus (VSV); format: cell-based; conditions: 0.04% HOCl aqueous solution; 30 seconds
[5] = Acute Inhalation Toxicity; format: in vivo, Young Adult Wistar Rats
Source text: (§2) Table 5. contains the results of several acute and sub-chronic toxicity tests.

Teratogenicity = format: in vivo
Source text: as §2

[6] = Absorption through intact skin; format: in vitro ADME; conditions: low concentrations of hypochlorous acid
Source text: Thus, the potential for producing skin reactions is extremely low.

[7] = Biocompatibility in treated patients; format: in vivo, human; conditions: 0.05% HOCl aqueous solution; over 20,000 patients treated
Source text: The 0.05% HOCl concentration aqueous solution is biocompatible and found to have a high safety profile. Over 20,000 patients have been treated with the solution with zero reported cases of hypersensitivity. The solution is pH controlled for biocompatibility, formulated for use on sensitive mucous membrane areas of the body, is non-antibiotic, non-irritating, non-allergenic, non-invasive, and non-toxic. No adverse effects against cellular growth in the patient.

[8] = Controlled randomized single blind clinical trial in surgical open wounds; format: in vivo, human
Method: The biocompatibility of the 0.046% HOCl concentration aqueous solution was tested in a three way controlled and randomized single blind clinical trial. Patients were randomized into three groups (60 patients per group). The antiseptic efficacy and biocompatibility of the test solution vs. povidone-iodine vs. chlorhexidine (Chlorhexidine Gluconate—CHG) in surgical—clean and clean contaminated—open wounds was evaluated in 180 patients admitted to the surgical facilities of Erasmo Meoz Hospital in Cucuta, Colombia.

[9] = Fournier's gangrene patient case; format: in vivo, human; conditions: HOCl (0.046%) aqueous solution; one patient; four step surgical process; 24 hours period
Method: A HOCl (0.046%) aqueous solution was preformed in a four step surgical process to a patient that was infected with Fournier's gangrene. Skin was removed from the infected area before administering the HOCl solution on the infected areas in a 24 hours period. Following application, skin graphs were placed over the surgical wound for rehabilitation process.

[10] = Biocompatibility and animal testing, overall; format: in vivo; conditions: 0.05% hypochlorous acid solution
Source text: The extensive biocompatibility and animal testing that have been performed supports the safety and efficacy of the 0.05% hypochlorous acid solution. […] Due to the safety of the solution, the hypochlorous acid solution can be used repeatedly without altering or changing the properties of the skin and mucous membranes.

E. coli = assay: Efficacy at 30 seconds (Table 2); conditions: 0.01 to 0.05% aqueous solution

SMILES: OCl [HOCl, hypochlorous acid]
- % Reduction (Enterococcus faecalis): 99.999%
- Log Reduction (Enterococcus faecalis): >6.5 Log10
- % Reduction (Pseudomona aeruginosa): 99.99%
- Log Reduction (Pseudomona aeruginosa): >5.94 Log10
- % Reduction (Enterobacter cloacae): 99.99%
- Log Reduction (Enterobacter cloacae): >5.76 Log10
- % Reduction (Campylobacter rectus): 99.99%
- Log Reduction (Campylobacter rectus): >5.96 Log10
- % Reduction (HIV (non-glp)): 99.999%
- Log Reduction (HIV (non-glp)): >6.1 Log10
- % Reduction (Herpes simplex virus): 99.99%
- Log Reduction (Herpes simplex virus): >5.8 Log10
- % Reduction (Human Papillomavirus): 99.999%
- Log Reduction (Human Papillomavirus): >5.35 Log10
- % Reduction (Bovine Diarrhea virus): 99.999%
- Log Reduction (Bovine Diarrhea virus): >5.35 Log10
- % Reduction (K. pneumoniae): 99.999%
- Log Reduction (K. pneumoniae): >5.46 Log10
- % Reduction (MRSA): 99.999%
- Log Reduction (MRSA): >5.89 Log10
- % Reduction (VRE): 99.999%
- Log Reduction (VRE): >5.51 Log10
- % Reduction [1]: 99.999%
- Log Reduction [1]: >5.84 Log10
- % Reduction [2]: >99.99%
- Log Reduction [2]: >4.92 Log10
- % Reduction [3]: 99.999%
- Log Reduction [3]: >5.57 Log10
- % Reduction (Candida albicans): 99.999%
- Log Reduction (Candida albicans): >5.19 Log10
- % Reduction (Haemophilus influenzae): >99.99%
- Log Reduction (Haemophilus influenzae): >4.81 Log10
- % Reduction (P. mirabilis): 99.999%
- Log Reduction (P. mirabilis): >5.65 Log10
- % Reduction (S. Epidermidis): 99.999%
- Log Reduction (S. Epidermidis): >5.60 Log10
- % Reduction (S. marcenscens): 99.999%
- Log Reduction (S. marcenscens): >5.37 Log10
- % Reduction [4]: 99.9999%
- Log Reduction [4]: 7.66
- survival after exposure to the test atmosphere ([5]; Gravimetric Chamber concentration 2.07 mg/L of HOCl, Wistar Rats): Animals All animals survived
- LC50 ([5]; both sexes, Wistar, rat, in vivo, 2.07 mg/L, male and female rats): > 2.07 µg/mL
- mortalities (Teratogenicity; Oral administration of 1000 mg/Kg/day, Females and Pregnant Wistar rats): No mortalities, considered
- toxicity assessment (Teratogenicity; rat, in vivo, po, 1000 mg/kg/day): non-toxic
- absorption of the compound through intact skin [6]: no evidence of absorption of the compound through intact skin
- reported cases of hypersensitivity [7]: zero
- infected patients ([8]; 0.046% HOCl aqueous solution, 60 patients per group, surgical open wounds): no infected patients
- wound appearance (biocompatibility) ([8]; human, in vivo): define edges, good color and hydrated wound beds
- outcome in Fournier's gangrene [9]: prevention of further spread of the disease as well as prevention of amputation and additional complications
- adverse effects to the skin or mucous membranes [10]: without adverse effects to the skin or mucous membranes
- Log Reduction (E. coli): >5.87 Log10
